Results: ChEMBL document CHEMBL1132069, “Syntheses of two trimannose analogs each containing C-mannosyl or 5-thio-C-mannosyl residue: their affinities to concanavalin A” (Bioorg Med Chem Lett, 1999)

Experiment: Dissociation constant for the binding of compound to concanavalin A (Con A) was determined by fluorescence anisotropy inhibition assay.

Row | Kd [µM] | Compound
1 | 31 | OC[C@@H]1O[C@H](O[C@@H]2[C@@H](O)[C@@H](O)O[C@@H](CC[C@H]3S[C@@H](CO)[C@@H](O)[C@H](O)[C@H]3O)[C@H]2O)[C@H](O)[C@@H](O)[C@@H]1O
2 | 198 | OC[C@@H]1O[C@H](CC[C@@H]2O[C@H](O)[C@H](O)[C@@H](O[C@H]3O[C@@H](CO)[C@@H](O)[C@H](O)[C@H]3O)[C@@H]2O)[C@H](O)[C@@H](O)[C@@H]1O
